The text below walks through data of US20230113011A1, “METHODS OF TREATING ILLNESSES CAUSED BY CORONAVIRUS, SWINE FLU AND AVIAN FLU” (CMTx Biotech Inc., priority 2020, published 2023).

The conditions of the data set: in vivo.

With `NC(=O)C1=C(O)C[C@@H]2C[C@@H]3Cc4cccc(O)c4C(=O)C3=C(O)[C@]2(O)C1=O` [CMT-3, 6-demethyl-6-deoxy-4-dedimethylaminotetracycline], the “plasma concentrations in humans” value is given as “about 1.0 μg/ml”.
